Measurements: patent US20110039762A1, “TARGETED ANTIMICROBIAL MOIETIES” (C3 JIAN, INC., priority 2009, published 2011)
“Also recorded” adds a separate entry of the source. Ends that are not written are not given here.

Tests used:
[1] = tested on: S. pneumoniae; assay: Kill or inhibit growth/proliferation; morphology, biofilm and growth disruption (Tables 5, 6); assay type: cell-based, Streptococcus pneumoniae; set-up: key: A: Peptide aggregates; B: Less hyphal formation; Clumps; Diffuse clumps and small polyps; F: Diffuse growth; H: Thin; I: Growth inhibition; Microcolony formation; Rippled; Small polyps; Thick; W: Halo formation on top, microlonies on bottom; note: test concentration or dose not given here
[2] = tested on: microorganisms (e.g., bacteria, yeasts, fungi); assay: Targeting peptide binding to target microorganisms (Table 3); settings: preferably 1x PBS; for Target(s): microorganism(s) the targeting peptide binds, peptide binding conducted in aqueous buffers varied by peptide solubility; for Target(s) (microorganisms bound by the targeting peptide): peptide binding in aqueous buffers varied by peptide solubility
[3] = tested on: microorganisms; assay: Peptides having multiple activities (targeting/binding, antimicrobial, growth or phenotype altering)
From the text: In certain embodiments, peptides described herein can have multiple activities. Thus for example, a peptide can have both binding/targeting activity and antimicrobial activity. Such peptides can be used, e.g., in a chimeric construct, for any or all of these properties. Thus, for example, a peptide designated “B” in Table 8 can be used as a targeting peptide. If it is also designated G or M it can also be used for antimicrobial activity.

## PF-467: peptide having multiple activities (chain 1 YYKDYFKEI; chain 2 YYKDYFKEI; Peptide with targeting and/or antimicrobial activity)
[1]
  Organism, effect: S. pneumoniae (H)
[2]
  Target(s): MRSA and E. faecalis and C. jeikeium and C. jejuni
[3]
  Activities: G B

## LHVIRPRPELSELKFPITKILKVNKQGLKK [PF-752]
[1]
  Organism, effect (morphology, biofilm and growth disruption): S. pneumoniae (C)
[2]
  Target(s) (microorganisms bound by the targeting peptide): S. epidermidis and E. coli and MRSA and S. pneumoniae and E. faecalis
[3]
  Activities: G B

## PF-513: peptide having multiple activities (chain 1 SNGVGLGVGIGSGIRF-NH2; chain 2 SNGVGLGVGIGSGIRF-NH2)
[1]
  Organism, effect: S. pneumoniae (M)
[2]
  Target(s): C. albicans
[3]
  Activities: G B

## PF-446: peptide having multiple activities (chain 1 SGNEKV; chain 2 SGNEKV; Peptide with targeting and/or antimicrobial activity)
[1]
  Organism, effect: S. pneumoniae (H)
[2]
  Target(s): M. luteus; also recorded: C. jeikeium
[3]
  Activities: G B

## PF-416: peptide having multiple activities (SKAGLYGKIERSDKRE; Peptide with targeting and/or antimicrobial activity)
[1]
  Organism, effect: S. pneumoniae (H)
[2]
  Target(s): S. pneumoniae; also recorded: C. jeikeium
[3]
  Activities: G B

## PF-457: peptide having multiple activities (chain 1 INKYHHIA; chain 2 INKYHHIA; Peptide with targeting and/or antimicrobial activity)
[1]
  Organism, effect: S. pneumoniae (M)
[2]
  Target(s): C. albicans; also recorded: S. pneumoniae; also recorded: E. faecalis; also recorded: C. jeikeium
[3]
  Activities: G B

## PF-459: peptide having multiple activities (chain 1 EKRMSFNENQSHRPLL; chain 2 EKRMSFNENQSHRPLL; Peptide with targeting and/or antimicrobial activity)
[1]
  Organism, effect: S. pneumoniae (H)
[2]
  Target(s): P. aeruginosa
[3]
  Activities: G B

## PF-476: peptide having multiple activities (chain 1 WADAQYKLCENCSE; chain 2 WADAQYKLCENCSE; Peptide with targeting and/or antimicrobial activity)
[1]
  Organism, effect: S. pneumoniae (H)
[2]
  Target(s): M. luteus; also recorded: P. mirabilis; also recorded: C. albicans; also recorded: S. pneumoniae; also recorded: E. faecalis; also recorded: C. jeikeium; also recorded: C. jejuni
[3]
  Activities: G B

## PF-744: peptide having multiple activities (LGVGTFVGKVLIKNQQKQKSKKKAQ; Peptide with targeting and/or antimicrobial activity)
[1]
  Organism, effect (morphology, biofilm and growth disruption): S. pneumoniae (H)
[2]
  Target(s) (microorganisms bound by the targeting peptide): S. epidermidis and M. luteus and E. coli and MRSA and S. pneumoniae and E. faecalis and C. jeikeium
[3]
  Activities: G B

## PF-757: peptide having multiple activities (PQAISSVQQNA; Peptide with targeting and/or antimicrobial activity)
[1]
  Organism, effect (morphology, biofilm and growth disruption): S. pneumoniae (H)
[2]
  Target(s) (microorganisms bound by the targeting peptide): M. luteus and C. albicans and MRSA
[3]
  Activities: G B

## PF-433: peptide having multiple activities (MRKEFHNVLSSGQLLADKRPARDYNRK; Peptide with targeting and/or antimicrobial activity)
[1]
  Organism, effect: S. pneumoniae (H)
[2]
  Target(s): S. epidermidis; also recorded: E. coli; also recorded: S. pneumoniae; also recorded: C. jeikeium
[3]
  Activities: G B

## PF-517: peptide having multiple activities (chain 1 VKPTMTASLISTVC; chain 2 VKPTMTASLISTVC; Peptide with targeting and/or antimicrobial activity)
[1]
  Organism, effect: S. pneumoniae (M)
[2]
  Target(s): C. jejuni
[3]
  Activities: G B

## PF-626: peptide having multiple activities (KYDFDDFEPEEA; Peptide with targeting and/or antimicrobial activity)
[1]
  Organism, effect: S. pneumoniae (H)
[2]
  Target(s) (microorganisms bound by the targeting peptide): S. epidermidis and M. luteus and E. coli and C. albicans and MRSA and S. pneumoniae and E. faecalis and C. jeikeium
[3]
  Activities: G B

## PF-466: peptide having multiple activities (chain 1 VRKSDQ; chain 2 VRKSDQ; Peptide with targeting and/or antimicrobial activity)
[1]
  Organism, effect: S. pneumoniae (H)
[2]
  Target(s): MRSA and C. jeikeium and C. jejuni
[3]
  Activities: G B

## PF-424: peptide having multiple activities (IAAFVTSRAFSDTVSPI; Peptide with targeting and/or antimicrobial activity)
[1]
  Organism, effect: S. pneumoniae (H)
[2]
  Target(s): S. epidermidis and C. albicans and MRSA
[3]
  Activities: G B

## PF-434: peptide having multiple activities (GQLLADKRPARDYNRK; Peptide with targeting and/or antimicrobial activity)
[1]
  Organism, effect: S. pneumoniae (S)
[2]
  Target(s): S. epidermidis; also recorded: M. luteus; also recorded: S. pneumoniae; also recorded: C. jeikeium
[3]
  Activities: G B

## PF-542: peptide having multiple activities (chain 1 KKDNPSLNDQDKNAVLNLLALAK; chain 2 KKDNPSLNDQDKNAVLNLLALAK; Peptide with targeting and/or antimicrobial activity)
[1]
  Organism, effect: S. pneumoniae (H)
[2]
  Target(s): C. jeikeium
[3]
  Activities: G B

## PF-756: peptide having multiple activities (DALLRLA; Peptide with targeting and/or antimicrobial activity)
[1]
  Organism, effect (morphology, biofilm and growth disruption): S. pneumoniae (A)
[2]
  Target(s) (microorganisms bound by the targeting peptide): S. epidermidis and M. luteus and C. albicans and MRSA and C. jeikeium
[3]
  Activities: G B

## PF-464: peptide having multiple activities (chain 1 VDMVNRFLGN; chain 2 VDMVNRFLGN; Peptide with targeting and/or antimicrobial activity)
[1]
  Organism, effect: S. pneumoniae (S)
[2]
  Target(s): S. epidermidis and C. albicans and MRSA and S. pneumoniae and E. faecalis and C. jeikeium and C. jejuni
[3]
  Activities: G B

## PF-462: peptide having multiple activities (chain 1 KNKTDTL; chain 2 KNKTDTL; Peptide with targeting and/or antimicrobial activity)
[1]
  Organism, effect: S. pneumoniae (H)
[2]
  Target(s): E. faecalis; also recorded: C. jeikeium
[3]
  Activities: G B

## PF-428: peptide having multiple activities (ENEESIF; Peptide with targeting and/or antimicrobial activity)
[1]
  Organism, effect: S. pneumoniae (H)
[2]
  Target(s): S. epidermidis; also recorded: C. albicans; also recorded: E. faecalis; also recorded: C. jeikeium
[3]
  Activities: G B

## PF-482: peptide having multiple activities (chain 1 LVGYVRTSGTVRSYKIN; chain 2 LVGYVRTSGTVRSYKIN; Peptide with targeting and/or antimicrobial activity)
[1]
  Organism, effect: S. pneumoniae (S)
[3]
  Activities: G B

## PF-479: peptide having multiple activities (chain 1 AYILKRREEKNK; chain 2 AYILKRREEKNK; Peptide with targeting and/or antimicrobial activity)
[1]
  Organism, effect: S. pneumoniae (C)
[3]
  Activities: G B

## PF-423: peptide having multiple activities (AGKKERLLSFREQFLNKNKKK; Peptide with targeting and/or antimicrobial activity)
[1]
  Organism, effect: S. pneumoniae (H)
[2]
  Target(s): S. epidermidis; also recorded: M. luteus; also recorded: E. coli; also recorded: S. pneumoniae; also recorded: E. faecalis; also recorded: C. jeikeium
[3]
  Activities: G B

## PF-515: peptide having multiple activities (chain 1 DKSTQDKDIKQAKLLAQELGL-NH2; chain 2 DKSTQDKDIKQAKLLAQELGL-NH2)
[1]
  Organism, effect: S. pneumoniae (H)
[2]
  Target(s): S. epidermidis; also recorded: C. albicans; also recorded: S. pneumoniae; also recorded: C. jeikeium
[3]
  Activities: G B

## PF-625: peptide having multiple activities (SDSTNNARTRKKARDVTTKDIDK; Peptide with targeting and/or antimicrobial activity)
[1]
  Organism, effect: S. pneumoniae (H)
[2]
  Target(s) (microorganisms bound by the targeting peptide): S. epidermidis; also recorded: M. luteus; also recorded: S. pneumoniae; also recorded: C. jeikeium
[3]
  Activities: G B

## PF-762: peptide having multiple activities (PAPAPSAPAPAPEQPEQPA; Peptide with targeting and/or antimicrobial activity)
[1]
  Organism, effect (morphology, biofilm and growth disruption): S. pneumoniae (H)
[2]
  Target(s) (microorganisms bound by the targeting peptide): M. luteus; also recorded: C. albicans
[3]
  Activities: G B
